One may read the pIC50 as −log10 of the IC50, conventionally taken in molar units. Low values mean a high IC50, high ones a low IC50.

Experimental findings from publication PMC6667408, “Discovery and preclinical characterization of [^18F]PI-2620, a next-generation tau PET tracer for the assessment of tau pathology in Alzheimer’s disease and other tauopathies” (European Journal of Nuclear Medicine and Molecular Imaging, 2019) are described below.

One test deals with T1, MAO-B (Homo sapiens, UniProt P27338).
T1 construct: gene MAOB; native enzyme in human non-demented control (NDC) brain homogenate
T1 sequence (P27338 2-520): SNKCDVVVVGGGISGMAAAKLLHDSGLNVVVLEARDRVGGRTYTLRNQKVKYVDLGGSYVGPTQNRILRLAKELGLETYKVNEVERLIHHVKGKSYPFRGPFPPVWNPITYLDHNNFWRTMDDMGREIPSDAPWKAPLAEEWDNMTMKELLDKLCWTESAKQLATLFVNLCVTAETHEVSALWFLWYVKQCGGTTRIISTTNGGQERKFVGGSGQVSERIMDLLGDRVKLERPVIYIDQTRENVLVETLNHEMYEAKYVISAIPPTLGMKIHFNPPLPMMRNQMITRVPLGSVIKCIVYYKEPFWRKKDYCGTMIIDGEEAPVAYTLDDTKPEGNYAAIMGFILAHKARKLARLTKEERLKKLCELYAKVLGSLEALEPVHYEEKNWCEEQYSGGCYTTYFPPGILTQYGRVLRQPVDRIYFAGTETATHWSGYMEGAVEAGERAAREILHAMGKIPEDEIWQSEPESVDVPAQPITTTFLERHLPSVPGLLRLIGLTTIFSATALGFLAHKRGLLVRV
Nature of the test: radioligand displacement of [3H]deprenyl, filtration. In kind it is binding. The conditions noted are these: [3H]deprenyl radioligand, PBS, 0.1% BSA, 2% DMSO.

For the next test, the target named is T2, MAO-A (Mus musculus, UniProt Q64133).
T2 construct: gene Maoa; native enzyme in mouse brain homogenate, 20 ug/well
T2 sequence (Q64133 1-526): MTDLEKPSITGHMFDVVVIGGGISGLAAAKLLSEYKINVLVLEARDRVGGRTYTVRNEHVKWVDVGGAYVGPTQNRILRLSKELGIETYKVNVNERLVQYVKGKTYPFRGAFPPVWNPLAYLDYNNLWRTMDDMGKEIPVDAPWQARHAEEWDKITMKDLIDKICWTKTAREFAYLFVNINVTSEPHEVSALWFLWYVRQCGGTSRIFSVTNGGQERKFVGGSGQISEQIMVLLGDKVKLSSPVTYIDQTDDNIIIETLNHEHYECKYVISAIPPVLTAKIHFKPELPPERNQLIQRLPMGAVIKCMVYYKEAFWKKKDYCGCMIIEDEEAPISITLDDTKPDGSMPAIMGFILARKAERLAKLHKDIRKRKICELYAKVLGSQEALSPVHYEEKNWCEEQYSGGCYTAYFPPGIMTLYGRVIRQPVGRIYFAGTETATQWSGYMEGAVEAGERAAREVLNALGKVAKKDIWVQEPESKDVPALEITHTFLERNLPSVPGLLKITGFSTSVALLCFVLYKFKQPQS
The test is described as follows: radioligand displacement of […]FEH, filtration. The conditions noted are these: [18F]fluoroethylharmine radioligand, PBS, 0.1% BSA, 2% DMSO. In kind it is binding.

`CNc1ccc(-c2ccc3cc(OCC(O)CF)ccc3n2)cn1` (stereo not drawn) [THK5151, reference compound] gave a negative logarithm of the IC50 (pIC50) on MAO-B of 7.4.
Consider `Fc1ccc(-c2ccc3c(c2)[nH]c2ccncc23)cn1` [compound 1, AV-1451], for which, at MAO-B, the “[^3H]Deprenyl MAO-B pIC50^c” value came out at 6.8. Moreover, on MAO-A, the “[^18F]FEH MAO-A pIC50^a” value amounted to 7.7.
As for `Fc1ccc(-c2ccc3c(n2)[nH]c2ccncc23)cn1` [compound 3, RO6958948], at MAO-A, the “[^18F]FEH MAO-A pIC50^a” value was determined as 6.3.
On the same count and under the same terms, next, `Fc1cnccc1-c1ccc2c(n1)[nH]c1ccncc12` [compound 8, 8]: 6.1.
Take `Fc1cccc(-c2ccc3c(n2)[nH]c2ccncc23)n1` [compound 9, 9]: the “[^3H]Deprenyl MAO-B pIC50^c” value on MAO-B worked out at 6.5. Besides, the “[^18F]FEH MAO-A pIC50^a” value at MAO-A came to 6.6.
In the same order, the values of `Fc1ccc(-c2ccc3c(n2)[nH]c2ccncc23)nc1` [compound 10, 10] are 6.5 and 7.1.
